Patent US20130296347A1, “Compositions and Methods for Prophylaxis and Treatment of Addictions” (Omeros Corporation, priority 2007, published 2013)
Entries after “also recorded” stand apart in the source; their conditions may differ.

Columns and labels:
[1] = test system: Marchigian Sardinian alcohol-preferring (msP) rats; experiment: Subchronic (7 days) voluntary ethanol intake, 10% alcohol available 24 hours/day; type: in vivo, rat
Experimental: At the beginning of the experiments, msP rats were allowed free choice between water and 10% (v/v) alcohol 24 h/day for at least 15 days. The fluids were offered in graduated drinking tubes equipped with metallic drinking spouts. The position (to the right or left) of alcohol and water drinking tubes was changed daily to avoid the development of side preference. Water and food were available ad libitum, while alcohol access was either restricted to 2 hours/day (Examples 1 and 2) or was available 24 hours/day (Examples 3 and 4). Alcohol, water and food intakes were measured.
[…]. Before starting the treatment, rats were trained to gavage administration procedures for three days, during which they received vehicle (distilled water).
Alcohol, water and food intakes were monitored at 2, 8 and 24 hours. Fluids and food intakes were monitored for three additional days after the end of the drug treatment period.
[…]. According to a between-subject design, four groups of msP rats (N=9/group) were prepared as described in Example 3. […] […]. Alcohol, water and food intakes were monitored at 2, 8 and 24 hours. Fluids and food intakes were monitored for three additional days after the end of the drug treatment period.

msP rats = experiment: Cue-induced reinstatement of alcohol seeking; type: in vivo, rat; conditions: pioglitazone 10.0, 30.0 mg/kg at 12 hours and 1 hour before test
Experimental: Cue-induced reinstatement of alcohol-seeking behaviour experimental procedures consisted of three phases: (1) conditioning phase; (2) extinction phase; and (3) reinstatement phase, as described below.
For the conditioning phase, at the completion of the fading procedure (see above), in 30 min daily sessions, animals were trained to discriminate between 10% alcohol and water. Beginning with self-administration training at the 10% alcohol concentration, discriminative stimuli (SD) predictive of alcohol versus water availability were presented during the alcohol and water self-administration sessions, respectively. The discriminative stimulus for alcohol consisted of the odour of an orange extract (S^+) whereas water availability (i.e. no reward) was signalled by an anise extract (S^−). The olfactory stimuli were generated by depositing six to eight drops of the respective extract into the bedding of the operant chamber. In addition, each lever-press resulting in delivery of alcohol was paired with illumination of the chamber's house light for 5 sec (CS^+). The corresponding cue during water sessions was a 5 second tone (70 dB) (CS). Concurrently with the presentation of these stimuli, a 5 sec. time-out period was in effect, during which responses were recorded but not reinforced. The olfactory stimuli serving as S^+ or S^− for alcohol availability were introduced one minute before extension of the levers and remained present throughout the 30-min. sessions. The bedding of the chamber was changed and bedding trays were cleaned between sessions. During the first three days of the conditioning phase, the rats were given alcohol sessions only. Subsequently, alcohol and water sessions were conducted in random order across training days, with the constraint that all rats received a total of 10 alcohol and 10 water sessions.
For the extinction phase, after the last conditioning day, rats were subjected to 30-min extinction sessions for 15 consecutive days. During this phase, sessions began by extension of the levers without presentation of the SD. […]

alcoholic patients = experiment: Observational study of alcohol abuse in human patients; type: in vivo
Source text: ACT)+psychotherapy. […] Patients were instructed to record in a personal logbook the number of drinks per day and the time of the day drinks occurred. At the end of the study, the logbooks were returned to the clinical personnel who analyzed the data. […] In addition, biochemical parameters to ascertain alcohol detoxification and to measure recovery of physiological functions (i.e., hepatic function) were monitored monthly. Hematological parameters measured included: mean corpuscular volume (MCV); gamma-GT; aspartate aminotransferase (AST); alanine aminotransferase (ALT); and carbohydrate-deficient transferring (CDT). MCV and CDT are biomarkers for ethanol consumption, and GGT, ALT and AST are biomarkers for hepatic functionality. Data were analyzed by analysis of variance followed by Newman-Keuls post hoc tests when appropriate.

Wistar rats [2] = experiment: FR5 cocaine self-administration; type: in vivo, rat; conditions: pioglitazone both 10.0 and 30.0 mg/kg OS 12 hours and 1 hour before session
Experimental: […]. Drug or vehicle solution was infused at a volume of 0.1 ml over 4 s.
Male Wistar rats weighing between 180 and 200 g at the time of arrival in the lab were used. The rats were housed in groups of three in a humidity- and temperature-controlled (22° C.) vivarium on a 12 h: 12 h reverse light/dark cycle (on, 17:00; off, 05:00) with ad libitum access to food and water. One week after arrival, rats were subjected to surgery, and a silastic catheter was implanted into the right jugular vein.
Cocaine self-administration training continued until a stable baseline of responding was reached (less than 10% variation for 3 consecutive days calculated for each single rat). At this point, drug testing begun.
. […] A 3-day interval was allowed between drug testing. During these intervals, cocaine self-administration was continued to re-establish baseline lever responses.

Long Evans rats = experiment: FR5 nicotine self-administration; type: in vivo, rat; conditions: pioglitazone 30 mg/kg OS 12 hours and 1 hour before session; p<0.05
Experimental: Bupropion hydrochloride (Sigma, Milan, Italy) was dissolved in saline. Nicotine tartrate (Sigma, Milan, Italy) was dissolved in isotonic saline at a concentration of 0.03 mg/0.1 ml free base. The pH of the nicotine solution was adjusted to 7 with dilute NaOH. Drug or vehicle solution was infused at a volume of 0.1 ml over 4 s.
Male Long Evans rats weighing between 180 and 200 g at the time of arrival in the lab were used. The rats were housed in groups of three in a humidity- and temperature-controlled (22° C.) vivarium on a 12 h:12 h reverse light/dark cycle (on, 17:00; off, 05:00) with ad libitum access to food and water. One week after arrival, the rats were subjected to surgery, and a silastic catheter was implanted into the right jugular vein.
After the successful completion of cocaine training, rats were allowed to self-administer nicotine at the 0.03 mg/kg/infusion dose by switching the delivery of cocaine for the delivery of a nicotine infusion. Nicotine self-administration training continued until stable baseline of responding was established (less than 20% variation for 3 consecutive days calculated for each single rat). At this point, drug testing began.
. […] A 3-day interval was allowed between drug testing. During these intervals, nicotine self-administration was continued to re-establish lever responses baseline.
Statistical significance was set at P<0.05

heavy tobacco smokers = experiment: Pilot clinical study in heavy tobacco smokers; type: in vivo, human
Experimental: Data were recorded for two months, during which patients were seen by the physician every other week. Patients were instructed to record in a personal logbook the number of cigarettes per day and the time of the day smoking occurred. At the end of the study, the logbooks were returned to the clinical personnel who analyzed the data. […] During the first month of treatment, every two weeks, ACTH and cortisol levels were also monitored to evaluate HPA activation before and during treatment.

Wistar rats [3] = experiment: Acquisition of heroin self-administration (FR1); type: in vivo, rat
[4] = pioglitazone 30 mg/day or naltrexone 50 mg/day + psychotherapy

Structure (SMILES): CCc1ccc(CCOc2ccc(CC3SC(=O)NC3=O)cc2)nc1.Cl (stereo not drawn) [pioglitazone]
- voluntary ethanol intake, overall ([1]; pioglitazone 10.0 or 30.0 mg/kg OS twice a day for 7 days): significantly reduced
- ethanol intake starting from the 4th day of treatment ([1]; pioglitazone both doses (10 and 30 mg/kg)): significantly reduced
- ethanol intake, onset of effect ([1]; pioglitazone highest dose (30 mg/kg), 7 days): appeared from the first day of treatment
- cue-induced (conditioned) reinstatement of alcohol-seeking (msP rats): not significantly modified; also recorded: lack of effect
- hepatic parameters (GGT, ALT, AST) (alcoholic patients; 2-month treatment): more pronounced
- Anxiety Score, STAY-Y1 scale (mean score values) (alcoholic patients; T = 1.1 (month 1, week 1)): 58
- Depression Scale M.A.D.R.S (mean score values) (alcoholic patients; T = 1.3): 10
- Depression Scale M.A.D.R.S (mean score values) (alcoholic patients; T = 1.4): 11
- Depression Scale M.A.D.R.S (mean score values) (alcoholic patients; T = 2.3): 10
- depression score, time course (alcoholic patients; during treatment with pioglitazone 30 mg/day): decreased starting from the second week of treatment
- effect on daily drinks, comparison of drugs (alcoholic patients; month 2 week 2 (T2.2) to month 2 week 4 (T2.4), p<0.001): significantly higher than that of naltrexone
- blood parameters (MCV, CDT, GGT, ALT, AST) (alcoholic patients; pioglitazone 30 mg/day): rapid normalization
- progressive decrease in anxiety score during treatment (alcoholic patients; pioglitazone 30 mg/day): highest effect
- progressive decrease in obsessive compulsive score for alcohol (OCDS) (alcoholic patients; pioglitazone 30 mg/day): extremely robust; also recorded: consistently reduced
- daily ethanol intake (number of daily drinks) (alcoholic patients; [4]): significantly reduced
- number of abstinence days (alcoholic patients; [4]): increased; also recorded: highest effect
- CDT and AST, naltrexone versus pioglitazone (alcoholic patients; post hoc): No significant difference
- OCDS versus controls (alcoholic patients; post hoc, P<0.001): statistically significant difference
- all five blood biomarkers versus controls (psychotherapy alone) (alcoholic patients; post hoc, P<0.001): statistical difference
- reducing the values of MCV, GGT and ALT, comparison of drugs (alcoholic patients; post hoc, P<0.001): more effective than naltrexone
- MADRS depression score, pioglitazone versus naltrexone (alcoholic patients; post hoc, p<0.001): significantly different
- OCDS, pioglitazone versus naltrexone (alcoholic patients; post hoc, p<0.001): more effective than naltrexone
- anxiety score, pioglitazone versus naltrexone (alcoholic patients; post hoc, p<0.001): more effective than naltrexone
- number of abstinence days, comparison of drugs (alcoholic patients; second month of therapy (T 2.1-T2.4)): significantly higher
- cocaine self-administration (Wistar rats [2]): significant (p<0.01) reduction
- nicotine self-administration (Long Evans rats): significantly reduced
- weekly smoked cigarettes, pioglitazone versus varenicline (post hoc) (heavy tobacco smokers; human, in vivo): no significant differences
- craving score (visual analogic craving scale) (heavy tobacco smokers; over treatment): highest reduction
- STAI anxiety score (heavy tobacco smokers; over treatment weeks): significantly reduced
- weekly smoked cigarettes compared to bupropione (post hoc) (heavy tobacco smokers; p<0.05): significant difference
- subjects reaching complete abstinence (heavy tobacco smokers; pioglitazone 4 patients, varenicline 3 patients): One
- heroin self-administration versus control, day 3 to day 8 (Wistar rats [3]; pioglitazone 30 mg/kg twice daily): significant difference
- acquisition of heroin self-administration (Wistar rats [3]; pioglitazone 30 mg/kg twice daily (12 hours and 1 hour prior to session)): significantly decreased
